# Measurements published in patent US9603866B2, “Anti-fatigue composition, formulation and use thereof” (priority 2010, dated 2017).
# Marks after values point to notes of the source that are not given here.
# Key:
# ICR mice = test: Mice burden swimming test; type: in vivo; conditions: for Swimming time / Change rate of swimming time: gavage once a day, 30 days; for Swimming time: 6% body weight load; for Change rate of swimming time: vs normal control
# Protocol: According to the Technical Standards for Testing & Assessment of Health Food issued by the Ministry of Health, P. R. China, function and biochemistry indexes assessment of the mixture of 20(S)-protopanoxadiol and lycium barbarum polysaccharide on the function of relieving physical fatigue is conducted; the detailed method is given as follows:
# (§1) 1. Experimental animals: ICR mice, male, 18-22 g, provided by Shanghai Slack laboratory animal Co. Ltd., license number: SCXK (Shanghai) 2007-0005;
# 20(S)-protopanoxadiol: provide by Shanghai Innovative Research Center of Traditional Chinese Medicine, batch number: 20050606-1, purity: 94%; lycium barbarum polysaccharide: provided by Shanghai KangZhou Fungi Extract Co. Ltd., polysaccharide content≧30%.
# To 20(S)-protopanoxadiol is added a small amount of 0.3% CMC-Na, followed by grinding to form a suspension and diluting with CMC-Na to a desired concentration. Then lycium barbarum polysaccharide is added to the 20(S)-protopanoxadiol suspension to form a composition with a certain concentration.
# (§2) 3. Experimental groups: the mice are randomly divided into 19 groups by weight, 20 mice per each group; the detailed groups are as follows:
# (§3) 0.2 ml/10 g of drug is administrated by gavage every day; for normal control group, 0.2 ml/10 g of distilled water is administrated by gavage every day; once a day, 30 days in total.
# 30 minutes after the last time of administrating drug, the end of the tail of each mouse is loaded with copper wires corresponding to 6% of its body weight, then the mouse is put in a swimming box to swim, the time from start of swimming to death of the mouse is recorded, i.e. the mice burden swimming time; the water depth in the swimming box is 30 cm or more, and water temperature is 23+1.0° C.
# 5. Statistical data processing: t-test is conducted to calculate P value, Jin Zhengjun formula is used to conduct combined medication analysis.
# Other than the combined dosage of Experimental example 1, the range of combined dosage is enlarged to conduct multi-batch experiments. The experimental animals, drugs and method are the same as those of Experimental example 1, and the final results are shown in Table 2: […]
# [1] = Animal weight during the 30-day gavage of the burden swimming study; type: in vivo, mice; conditions: gavage once a day, 30 days
# Protocol: as §1, §2, §3
compound,measurement,setting,value
CC(C)=CCC[C@](C)(O)[C@H]1CC[C@]2(C)[C@@H]1[C@H](O)C[C@@H]1[C@@]3(C)CC[C@H](O)C(C)(C)[C@@H]3CC[C@]12C [20(S)-protopanoxadiol],Swimming time,ICR mice; 0.01 mg/kg,640 ± 275 s
same,Change rate of swimming time,ICR mice; 0.01 mg/kg,1.5%
same,Swimming time,ICR mice; 0.5 mg/kg,660 ± 268 s
same,Change rate of swimming time,ICR mice; 0.5 mg/kg,1.9%
same,Swimming time,ICR mice; 1 mg/kg,658 ± 296 s
same,Change rate of swimming time,ICR mice; 1 mg/kg,2.2%
same,Swimming time,ICR mice; 5 mg/kg,640 ± 286 s
same,Change rate of swimming time,ICR mice; 5 mg/kg,1.5%
same,Swimming time change rate,"ICR mice; Table 2, 0.01 mg/kg",1.5%
same,Swimming time change rate,"ICR mice; Table 2, 0.5 mg/kg",1.9%
same,Swimming time change rate,"ICR mice; Table 2, 1 mg/kg",2.2%
same,Swimming time change rate,"ICR mice; Table 2, 3 mg/kg",1.6%
same,Swimming time change rate,"ICR mice; Table 2, 6.25 mg/kg",1.4%
same,Swimming time change rate,"ICR mice; Table 2, 12.5 mg/kg",3.4%
same,Swimming time change rate,"ICR mice; Table 2, 25 mg/kg",6.9%
same,Swimming time change rate,"ICR mice; Table 2, 50 mg/kg",12.4* %
same,Effect on mice swimming time (in words),"ICR mice; Table 2, single use, compared with normal control group (P>0.05)",no significant effect on mice swimming time
same,Animal weight start/finish (finish),[1]; 0.01 mg/kg,21.6/39.2 g
same,Animal weight start/finish (finish),[1]; 0.5 mg/kg,21.8/38.8 g
same,Animal weight start/finish (finish),[1]; 1 mg/kg,21.7/38.7 g
same,Animal weight start/finish (finish),[1]; 5 mg/kg,21.8/38.9 g
